# Laboratory results: article PMC6704710, “Preclinical evaluation of 3D185, a novel potent inhibitor of FGFR1/2/3 and CSF-1R, in FGFR-dependent and macrophage-dominant cancer models” (Journal of Experimental & Clinical Cancer Research : CR, 2019)
# Tests used:
# Experiment in all cases: Eurofins kinase panel
# Assay type in all cases: biochemical
# Conditions in all cases: read-out: Inhibition rate (%)
# ACK1(h) = molecular target: T1, ACK1(h) (Homo sapiens, UniProt Q07912)
# T1 construct: purchased Eurofins (KinaseProfiler)
# T1 sequence (Q07912 whole entry): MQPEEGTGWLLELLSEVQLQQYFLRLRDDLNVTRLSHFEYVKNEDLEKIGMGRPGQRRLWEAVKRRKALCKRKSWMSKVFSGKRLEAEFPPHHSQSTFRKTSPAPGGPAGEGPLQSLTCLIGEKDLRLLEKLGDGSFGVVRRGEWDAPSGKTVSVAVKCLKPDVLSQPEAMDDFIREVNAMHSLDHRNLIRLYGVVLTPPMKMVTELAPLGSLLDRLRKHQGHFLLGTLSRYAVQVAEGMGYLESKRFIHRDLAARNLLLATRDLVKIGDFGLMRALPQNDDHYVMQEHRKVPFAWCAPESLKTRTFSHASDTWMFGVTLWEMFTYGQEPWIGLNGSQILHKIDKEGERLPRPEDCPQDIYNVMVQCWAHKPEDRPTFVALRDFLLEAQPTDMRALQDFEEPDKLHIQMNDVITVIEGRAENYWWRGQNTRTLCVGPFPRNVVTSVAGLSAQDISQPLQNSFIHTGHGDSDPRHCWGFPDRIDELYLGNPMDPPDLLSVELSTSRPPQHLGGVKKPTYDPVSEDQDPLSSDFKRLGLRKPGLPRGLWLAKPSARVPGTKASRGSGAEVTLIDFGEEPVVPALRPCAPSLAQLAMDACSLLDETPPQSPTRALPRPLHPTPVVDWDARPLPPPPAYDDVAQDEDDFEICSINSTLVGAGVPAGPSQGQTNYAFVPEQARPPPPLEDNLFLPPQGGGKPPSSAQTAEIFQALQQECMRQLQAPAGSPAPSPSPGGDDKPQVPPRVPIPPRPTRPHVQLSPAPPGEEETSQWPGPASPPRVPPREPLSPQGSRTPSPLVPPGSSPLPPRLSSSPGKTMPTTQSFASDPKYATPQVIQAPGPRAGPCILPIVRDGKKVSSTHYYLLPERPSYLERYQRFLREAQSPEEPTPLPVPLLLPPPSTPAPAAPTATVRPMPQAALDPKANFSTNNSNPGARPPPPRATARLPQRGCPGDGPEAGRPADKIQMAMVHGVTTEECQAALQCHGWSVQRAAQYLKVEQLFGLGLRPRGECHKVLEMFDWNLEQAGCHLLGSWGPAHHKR
# AMPKα2(h) = molecular target: T2, AMPKα2(h) (Homo sapiens, UniProt P54646)
# T2 construct: purchased Eurofins (KinaseProfiler)
# T2 sequence (P54646 whole entry): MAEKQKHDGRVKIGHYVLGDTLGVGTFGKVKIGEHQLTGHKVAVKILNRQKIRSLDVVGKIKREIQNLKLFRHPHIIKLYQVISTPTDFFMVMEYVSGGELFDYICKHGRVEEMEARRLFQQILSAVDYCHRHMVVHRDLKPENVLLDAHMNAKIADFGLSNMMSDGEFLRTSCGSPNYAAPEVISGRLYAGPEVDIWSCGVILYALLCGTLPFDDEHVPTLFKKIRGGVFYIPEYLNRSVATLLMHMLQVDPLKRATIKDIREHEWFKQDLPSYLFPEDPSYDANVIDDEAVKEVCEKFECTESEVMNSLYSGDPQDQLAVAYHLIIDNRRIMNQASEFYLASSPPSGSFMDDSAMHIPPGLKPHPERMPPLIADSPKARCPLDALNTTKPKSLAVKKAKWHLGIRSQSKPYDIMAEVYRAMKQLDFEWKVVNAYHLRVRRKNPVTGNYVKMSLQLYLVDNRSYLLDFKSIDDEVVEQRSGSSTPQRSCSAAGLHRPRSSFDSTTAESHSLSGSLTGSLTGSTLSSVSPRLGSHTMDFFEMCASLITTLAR
# T2 sequence (Q9Y478 whole entry partner): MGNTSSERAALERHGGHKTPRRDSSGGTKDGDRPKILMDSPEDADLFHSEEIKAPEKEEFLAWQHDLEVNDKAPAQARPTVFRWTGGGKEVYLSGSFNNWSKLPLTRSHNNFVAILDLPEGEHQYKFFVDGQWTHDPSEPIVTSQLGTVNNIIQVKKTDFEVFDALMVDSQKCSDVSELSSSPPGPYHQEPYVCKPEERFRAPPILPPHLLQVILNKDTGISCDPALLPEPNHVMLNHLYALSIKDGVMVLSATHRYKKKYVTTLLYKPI
# T2 sequence (P54619 whole entry partner): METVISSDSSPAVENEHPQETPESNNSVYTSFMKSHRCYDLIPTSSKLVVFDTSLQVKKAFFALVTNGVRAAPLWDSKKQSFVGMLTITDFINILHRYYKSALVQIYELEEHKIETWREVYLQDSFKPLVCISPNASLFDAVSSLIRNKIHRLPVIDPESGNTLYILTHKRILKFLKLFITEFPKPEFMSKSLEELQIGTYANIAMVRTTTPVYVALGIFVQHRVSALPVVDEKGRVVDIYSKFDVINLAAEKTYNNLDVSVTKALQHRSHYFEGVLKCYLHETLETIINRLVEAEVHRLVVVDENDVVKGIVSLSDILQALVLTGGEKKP
# CaMKI(h) = molecular target: T3, CaMKI(h) (Homo sapiens, UniProt Q14012)
# T3 construct: purchased Eurofins (KinaseProfiler)
# T3 sequence (Q14012 whole entry): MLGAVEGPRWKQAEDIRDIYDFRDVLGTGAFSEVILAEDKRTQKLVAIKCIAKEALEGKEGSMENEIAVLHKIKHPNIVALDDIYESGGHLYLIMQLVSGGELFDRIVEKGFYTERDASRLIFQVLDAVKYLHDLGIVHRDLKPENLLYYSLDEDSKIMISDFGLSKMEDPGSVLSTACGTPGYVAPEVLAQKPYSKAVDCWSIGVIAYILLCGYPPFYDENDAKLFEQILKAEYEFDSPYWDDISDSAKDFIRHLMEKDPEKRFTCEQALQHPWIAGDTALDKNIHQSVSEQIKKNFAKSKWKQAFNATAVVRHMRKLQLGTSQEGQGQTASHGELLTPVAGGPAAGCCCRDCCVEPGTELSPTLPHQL
# DMPK(h) = molecular target: T4, DMPK(h) (Homo sapiens, UniProt Q09013)
# T4 construct: purchased Eurofins (KinaseProfiler)
# T4 sequence (Q09013 1-629): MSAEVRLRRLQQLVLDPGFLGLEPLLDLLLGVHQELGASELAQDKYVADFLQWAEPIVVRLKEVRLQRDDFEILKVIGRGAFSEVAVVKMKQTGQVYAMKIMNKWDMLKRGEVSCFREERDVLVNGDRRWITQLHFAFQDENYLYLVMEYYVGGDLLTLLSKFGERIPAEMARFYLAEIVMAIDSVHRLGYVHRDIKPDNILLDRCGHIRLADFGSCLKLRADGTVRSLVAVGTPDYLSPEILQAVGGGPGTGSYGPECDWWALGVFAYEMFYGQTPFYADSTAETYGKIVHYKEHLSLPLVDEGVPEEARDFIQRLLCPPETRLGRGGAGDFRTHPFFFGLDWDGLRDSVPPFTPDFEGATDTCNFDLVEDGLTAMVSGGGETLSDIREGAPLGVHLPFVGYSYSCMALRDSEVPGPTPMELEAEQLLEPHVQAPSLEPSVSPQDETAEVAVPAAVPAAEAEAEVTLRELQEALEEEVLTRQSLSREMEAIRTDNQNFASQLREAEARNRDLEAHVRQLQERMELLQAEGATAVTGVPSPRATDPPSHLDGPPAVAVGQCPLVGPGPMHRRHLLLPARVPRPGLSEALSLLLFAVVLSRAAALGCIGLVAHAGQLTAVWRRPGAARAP
# HIPK4(h) = molecular target: T5, HIPK4(h) (Homo sapiens, UniProt Q8NE63)
# T5 construct: purchased Eurofins (KinaseProfiler)
# T5 sequence (Q8NE63 1-616): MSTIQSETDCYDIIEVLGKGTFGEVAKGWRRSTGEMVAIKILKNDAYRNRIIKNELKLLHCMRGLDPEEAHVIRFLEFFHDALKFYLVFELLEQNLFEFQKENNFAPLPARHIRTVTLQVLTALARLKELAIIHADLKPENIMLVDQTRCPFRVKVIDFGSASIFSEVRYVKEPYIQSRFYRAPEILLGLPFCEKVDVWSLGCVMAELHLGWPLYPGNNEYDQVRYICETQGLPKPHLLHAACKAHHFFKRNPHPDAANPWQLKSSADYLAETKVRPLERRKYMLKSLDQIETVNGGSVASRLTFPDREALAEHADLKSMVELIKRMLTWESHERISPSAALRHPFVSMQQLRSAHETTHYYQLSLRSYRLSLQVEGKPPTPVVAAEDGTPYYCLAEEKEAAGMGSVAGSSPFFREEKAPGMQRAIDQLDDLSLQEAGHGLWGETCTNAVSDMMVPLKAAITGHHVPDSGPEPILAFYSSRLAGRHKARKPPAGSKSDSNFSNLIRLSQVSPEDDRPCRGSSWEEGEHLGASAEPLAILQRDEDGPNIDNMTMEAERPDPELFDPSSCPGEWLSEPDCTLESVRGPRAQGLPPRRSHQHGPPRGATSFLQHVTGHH
# CDK13/cyclinK(h) = molecular target: T6, CDK13/cyclinK(h) (Homo sapiens, UniProt Q14004)
# T6 construct: purchased Eurofins (KinaseProfiler)
# T6 sequence (Q14004 whole entry): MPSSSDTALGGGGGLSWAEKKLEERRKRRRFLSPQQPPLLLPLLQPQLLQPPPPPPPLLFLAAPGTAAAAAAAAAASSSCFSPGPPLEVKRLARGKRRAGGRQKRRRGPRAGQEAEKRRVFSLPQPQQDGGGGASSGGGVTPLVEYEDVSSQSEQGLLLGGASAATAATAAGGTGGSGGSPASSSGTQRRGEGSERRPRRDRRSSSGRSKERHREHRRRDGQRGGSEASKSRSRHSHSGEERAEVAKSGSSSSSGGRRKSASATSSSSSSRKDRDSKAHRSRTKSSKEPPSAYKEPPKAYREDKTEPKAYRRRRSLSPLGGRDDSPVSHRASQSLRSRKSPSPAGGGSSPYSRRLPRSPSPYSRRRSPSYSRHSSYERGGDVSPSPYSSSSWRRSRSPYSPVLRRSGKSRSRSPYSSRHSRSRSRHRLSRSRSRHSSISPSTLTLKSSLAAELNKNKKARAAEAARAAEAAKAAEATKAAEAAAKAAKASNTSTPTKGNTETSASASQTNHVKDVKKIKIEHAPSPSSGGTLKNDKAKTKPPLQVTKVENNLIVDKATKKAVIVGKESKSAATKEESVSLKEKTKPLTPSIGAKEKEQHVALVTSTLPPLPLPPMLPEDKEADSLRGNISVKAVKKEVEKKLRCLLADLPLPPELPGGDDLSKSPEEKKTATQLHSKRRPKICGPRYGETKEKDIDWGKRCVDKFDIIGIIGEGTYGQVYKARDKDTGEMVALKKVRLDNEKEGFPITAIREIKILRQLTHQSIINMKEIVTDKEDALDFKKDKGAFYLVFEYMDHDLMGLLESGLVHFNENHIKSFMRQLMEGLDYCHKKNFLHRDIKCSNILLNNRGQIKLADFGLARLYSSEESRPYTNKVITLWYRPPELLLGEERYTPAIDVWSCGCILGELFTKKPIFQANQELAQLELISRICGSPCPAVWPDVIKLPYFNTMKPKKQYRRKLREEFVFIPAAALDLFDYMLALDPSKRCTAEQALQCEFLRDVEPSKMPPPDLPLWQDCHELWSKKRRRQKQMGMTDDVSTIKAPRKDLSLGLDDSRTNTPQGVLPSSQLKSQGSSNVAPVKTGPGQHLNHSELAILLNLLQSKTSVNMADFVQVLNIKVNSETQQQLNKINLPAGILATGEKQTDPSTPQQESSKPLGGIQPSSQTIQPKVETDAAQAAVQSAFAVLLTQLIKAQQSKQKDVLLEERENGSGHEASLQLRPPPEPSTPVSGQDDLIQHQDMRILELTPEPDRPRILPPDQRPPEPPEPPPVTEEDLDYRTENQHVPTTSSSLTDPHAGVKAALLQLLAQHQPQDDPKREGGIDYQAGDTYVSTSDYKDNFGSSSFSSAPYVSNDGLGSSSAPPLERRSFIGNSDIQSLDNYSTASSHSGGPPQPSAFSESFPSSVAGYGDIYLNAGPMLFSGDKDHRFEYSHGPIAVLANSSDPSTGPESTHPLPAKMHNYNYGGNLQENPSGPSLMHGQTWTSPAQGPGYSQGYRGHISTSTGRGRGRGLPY
# T6 sequence (O75909 whole entry partner): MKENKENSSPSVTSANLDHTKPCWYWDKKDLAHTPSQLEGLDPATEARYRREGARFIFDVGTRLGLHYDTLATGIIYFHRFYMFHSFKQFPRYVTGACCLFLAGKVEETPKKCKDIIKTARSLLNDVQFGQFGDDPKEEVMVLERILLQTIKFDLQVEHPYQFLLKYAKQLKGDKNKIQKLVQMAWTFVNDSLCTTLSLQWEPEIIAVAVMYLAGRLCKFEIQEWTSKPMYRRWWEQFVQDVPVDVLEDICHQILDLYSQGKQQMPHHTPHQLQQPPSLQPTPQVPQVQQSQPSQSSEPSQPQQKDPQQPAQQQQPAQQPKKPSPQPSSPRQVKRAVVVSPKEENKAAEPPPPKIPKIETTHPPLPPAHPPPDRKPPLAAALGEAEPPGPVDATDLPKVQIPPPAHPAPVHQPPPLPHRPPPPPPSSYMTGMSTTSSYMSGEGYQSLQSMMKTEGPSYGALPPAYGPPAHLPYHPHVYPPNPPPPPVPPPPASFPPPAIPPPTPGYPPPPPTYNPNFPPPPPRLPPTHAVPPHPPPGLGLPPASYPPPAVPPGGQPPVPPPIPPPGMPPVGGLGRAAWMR
# Protocol: (§1) Active FGFR1–4, VEGFR1, KDR, VEGFR3, PDGFRα and PDGFRβ proteins were purchased from Eurofins (Fremont, United States), and kinase activity was assessed using ELISA, as previously reported. The broader kinase selectivity profile of 3D185 (0.01, 0.1, and 1 μM) was determined by Eurofins by screening the compound against 372 human recombinant kinases. Increasing concentrations of ATP were diluted for the kinase reaction in the ATP competition assay. CSF-1R kinase activity was analyzed using the Z’-LYTE™ Kinase Assay Kit (Thermo Fisher, United States). The assay formats are described in the SelectScreen Kinase Profiling Service Zlyte protocol. IC50 values were calculated by dose-response curve fitting using Prism (Graph Pad).
# PRP4(h) = molecular target: T7, PRP4(h) (Homo sapiens, UniProt Q13523)
# T7 construct: purchased Eurofins (KinaseProfiler)
# Protocol: as §1
smiles,measurement,setting,value
COc1cc(OC)c(Cl)c(-c2ccc3c(NC(=O)c4ccc(N5CCNC(C)(C)C5)cc4)n[nH]c3n2)c1Cl [3D185],inhibition at 0.01 µM,ACK1(h); 10 nM,1%
same,inhibition at 0.1 µM,ACK1(h); 100 nM,37%
same,inhibition at 1 µM,ACK1(h); 1000 nM,90%
same,inhibition at 0.01 µM,AMPKα2(h); 10 nM,-4%
same,inhibition at 0.1 µM,AMPKα2(h); 100 nM,-8%
same,inhibition at 1 µM,AMPKα2(h); 1000 nM,9%
same,inhibition at 0.01 µM,CaMKI(h); 10 nM,11%
same,inhibition at 0.1 µM,CaMKI(h); 100 nM,14%
same,inhibition at 1 µM,CaMKI(h); 1000 nM,64%
same,inhibition at 0.01 µM,DMPK(h); 10 nM,2%
same,inhibition at 0.1 µM,DMPK(h); 100 nM,3%
same,inhibition at 1 µM,DMPK(h); 1000 nM,2%
same,inhibition at 0.01 µM,HIPK4(h); 10 nM,1%
same,inhibition at 0.1 µM,HIPK4(h); 100 nM,-17%
same,inhibition at 1 µM,HIPK4(h); 1000 nM,16%
same,inhibition at 0.01 µM,CDK13/cyclinK(h); 10 nM,-16%
same,inhibition at 0.1 µM,CDK13/cyclinK(h); 100 nM,8%
same,inhibition at 1 µM,CDK13/cyclinK(h); 1000 nM,1%
same,inhibition at 0.01 µM,PRP4(h); 10 nM,-8%
same,inhibition at 0.1 µM,PRP4(h); 100 nM,-9%
same,inhibition at 1 µM,PRP4(h); 1000 nM,-1%
